# Test results reported in patent publication US11420962B2, “Indene derivatives useful in treating pain and inflammation” (TARO PHARMACEUTICALS INC., priority 2018, dated 2022).
# Key:
# Format in all cases: in vivo
# [1] = test system: Rats (male, Sprague-Dawley); test: Rat carrageenan-induced hyperalgesia and paw edema; settings: 10 mg/kg, given 1 h prior to carrageenan challenge
# Description: Representative compounds of the invention (i.e., test compounds) were administered PO, QD for 3 days prior to carrageenan injection, once at 1 h prior to carrageen, or at 5 min or 1 h post-challenge to rats (male, Sprague-Dawley). Rats received either an intraplantar injection of saline (sham) or carrageen (0.1 mL of a 2% solution [w/v]) in the right hind paw. Mechanical hyperalgesia (using an analgesymeter) and paw volume (using a digital plethysmometer) were measured at baseline (0 hr), 2, 4 and 6 h post carrageenan injection for all the animals. Celecoxib, given 1 h prior to carrageen challenge, was used as a reference standard.
# rats (male, Wistar) = test: Complete Freund's Adjuvant (CFA) model of inflammatory pain in rats; settings: 30 mg/kg dose
# Description: Representative compounds of the invention (i.e., test compounds) were tested in this model of inflammatory pain. The rats (male, Wistar) were acclimatized to the instruments (plantar test surface and dynamic plantar aesthesiometer) on two consecutive days prior to the initiation of the study. On Day 0, basal paw withdrawal latency and paw withdrawal threshold were taken and animals were randomized to different groups. Complete Freund's Adjuvant (CFA) at 1 mg/mL (0.1 mL) was injected into the plantar surface of right hind paw. Test compounds (3 or 30 mg/kg) were administered PO, twice (Day 0 and Day 1) or once, on Day 1 (24 h after CFA). Thermal hyperalgesia and mechanical allodynia were assessed at 0 (baseline), 1, 3 and 6 h after administration of the test compound on Day 1. Diclofenac was used as a reference compound, given once on Day 1.
# [2] = test system: female Sprague-Dawley rats; test: Cyclophosphamide-induced cystitis in rats (visceral pain); settings: 300 mg/kg dose
# Description: Representative compounds of the invention (i.e., test compounds) were administered to female Sprague-Dawley rats, for four days by oral gavage in 0.9% saline. Two hours after the fourth dose, the rats were challenged by intraperitoneal administration of cyclophosphamide (150 mg/kg). Referred mechanical sensitivity was measured four hours later by applying a series of eight von Frey filaments to the lower abdomen, three times each for 1-2 seconds with a 5 second interval between applications. Responses were scored (zero-no response; one-response, two-response and change of position, and three-response, change of position and licking the site or vocalization), totaled and the percent of maximal possible nociceptive score calculated. Ibuprofen was used as a reference standard.
# male Sprague-Dawley rats = test: Rat chronic prostatitis/chronic pelvic pain (carrageenan); settings: 300 mg/kg
# Description: Representative compounds of the invention (i.e., test compounds) were administered for 11 days by oral gavage in 0.9% saline (3, 10 or 30 mg/kg QD; 5 mL/kg dose volume) to male Sprague-Dawley rats. Carrageenan-mediated chronic prostatitis/chronic pelvic pain (CP/CPPS) established in rats (10 per group) by administration of an intraprostatic injection of carrageenan (˜12.5 μL/lobe of a 30 mg/mL solution) into both ventral prostate lobes, on Day 0. Referred mechanical sensitivity was measured on Days 0, 1, 3 and 7, 2 hours after test compound, or vehicle (saline) administration, by applying 6 von Frey filaments with increasing forces of 0.16-2 g to the scrotal skin area, 3 times each for 1-2 seconds, with a 5-second interval between applications. Responses were scored (zero-no response; one-reaction of the animal, two-jump, and three-licking the site) and expressed as the nociceptive threshold for each day of assessment. Ibuprofen was used as a reference standard.
# According to the above assay, Compound Ia-1 restored nociceptive threshold to 65% of baseline on Day 3 at the 30 mg/kg dose as compared to the reference standard, ibuprofen (300 mg/kg), which restored the threshold to 120% of the baseline.
structure (smiles),measurement,setting,value
"Cc1ccc(-c2cc(C(F)(F)F)nn2-c2ccc(S(N)(=O)=O)cc2)cc1 [celecoxib, reference compound]",increase in the paw withdrawal threshold,[1],59%
"O=C(O)Cc1ccccc1Nc1c(Cl)cccc1Cl [diclofenac, reference compound]",increase in the paw withdrawal threshold,"rats (male, Wistar)",62%
"CC(C)Cc1ccc(C(C)C(=O)O)cc1 (stereo not shown) [ibuprofen, reference compound]","nociceptive threshold, % of baseline levels",[2],123%
same,"nociceptive threshold restored, % of the baseline",male Sprague-Dawley rats,120%
